IC50, EC50 and AC50 data for eight molecules are collected here from ChEMBL document CHEMBL1201862, “PubChem BioAssay data set” (2004).

Each structure is given as a SMILES string. Calls of active or inactive are those of the source.

The target in assay [1] is Beta-galactosidase (Escherichia coli, UniProt Q8VNN2). Description: Dose response counterscreen for EBI2 assay utilizing the enzyme, b-galactosidase. Type of assay: functional. (The purpose of a counterscreen is to sort out artefacts and off-target activity.)
Sequence of Beta-galactosidase (Q8VNN2 whole entry): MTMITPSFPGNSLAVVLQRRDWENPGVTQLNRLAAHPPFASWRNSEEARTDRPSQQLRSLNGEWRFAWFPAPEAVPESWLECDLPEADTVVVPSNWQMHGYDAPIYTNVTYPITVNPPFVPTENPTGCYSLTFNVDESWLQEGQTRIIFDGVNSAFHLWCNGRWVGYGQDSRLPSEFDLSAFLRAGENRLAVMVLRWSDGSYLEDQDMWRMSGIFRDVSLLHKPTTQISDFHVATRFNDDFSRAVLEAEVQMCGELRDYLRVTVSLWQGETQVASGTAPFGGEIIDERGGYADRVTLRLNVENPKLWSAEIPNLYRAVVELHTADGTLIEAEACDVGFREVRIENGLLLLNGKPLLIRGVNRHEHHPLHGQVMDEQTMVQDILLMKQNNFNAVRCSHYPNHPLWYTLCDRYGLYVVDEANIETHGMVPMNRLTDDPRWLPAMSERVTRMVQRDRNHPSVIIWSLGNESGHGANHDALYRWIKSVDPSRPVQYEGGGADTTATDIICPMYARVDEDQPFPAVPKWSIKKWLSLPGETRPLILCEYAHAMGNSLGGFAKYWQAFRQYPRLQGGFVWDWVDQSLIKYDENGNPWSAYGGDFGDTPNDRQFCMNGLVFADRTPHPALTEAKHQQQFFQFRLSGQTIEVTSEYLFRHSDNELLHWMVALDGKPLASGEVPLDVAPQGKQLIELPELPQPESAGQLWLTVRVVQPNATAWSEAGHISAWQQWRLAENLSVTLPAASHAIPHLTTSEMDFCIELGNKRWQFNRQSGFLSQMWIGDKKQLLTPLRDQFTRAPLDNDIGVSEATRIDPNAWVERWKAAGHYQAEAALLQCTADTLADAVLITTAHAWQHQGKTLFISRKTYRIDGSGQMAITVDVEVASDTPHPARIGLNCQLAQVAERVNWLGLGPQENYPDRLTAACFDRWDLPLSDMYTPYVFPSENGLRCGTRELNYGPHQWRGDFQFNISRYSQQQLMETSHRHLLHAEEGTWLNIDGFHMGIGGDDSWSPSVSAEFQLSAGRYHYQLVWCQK
Assay [2] addresses Metabotropic glutamate receptor 5 (Rattus norvegicus, UniProt P31424). Description: Identification of a glycine sulfonamide based non-MPEP site positive allosteric potentiator (PAM) of mGlu5 (calcium_assay). Type of assay: functional.
Assay [3] in a line: MITF Orthogonal Assay: SK-MEL-5 CTG Assay Measured in Cell-Based System Using Plate Reader - 2084-02_Inhibitor_Dose_DryPowder_Activity_Set7. Type of assay: functional.
Assay [4] can be described thus: TRPM1 promoter luciferase reporter signal decrease, dose response, MITF inhibitor project, cell-based, SK-MEL-5, dry powder, set 8 (AID 624430). Type of assay: functional. Background: In a reporter assay the amount or activity of a reporter protein is the signal.
Assay [5] in a line: MITF: Counter assay: A375 proliferation Measured in Cell-Based System Using Plate Reader - 2084-03_Inhibitor_Dose_DryPowder_Activity_Set8. Particulars: A-375. Type of assay: functional.
Assay [6] addresses T1, Beta-lactamase (Salmonella choleraesuis (strain SC-B67), UniProt Q5J463).
The target of assay [7] is T2, Endoribonuclease toxin MazF (Escherichia coli K-12, UniProt P0AE70).
T2 sequence (P0AE70 whole entry): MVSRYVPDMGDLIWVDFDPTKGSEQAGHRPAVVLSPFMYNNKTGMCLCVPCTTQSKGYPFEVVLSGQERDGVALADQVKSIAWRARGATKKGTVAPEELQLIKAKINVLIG
As to the kind of experiment: fluorescent RNA oligo signal without MazF, dose response, counter-screen for MazEF activator project, biochemical, fluorescence, single-stranded RNase substrate (AID 588502). In kind it is functional.

Assay [8] concerns the target T2, Endoribonuclease toxin MazF. As to the kind of experiment: MazF toxin RNase activators, dose response, biochemical, fluorescence, single-stranded RNA substrate, uHTS hits (AID 588481). Type of assay: functional.
In assay [9] the target is T3, Beta-lactamase (Pseudomonas aeruginosa, UniProt Q79MP6).
T3 sequence (Q79MP6 whole entry): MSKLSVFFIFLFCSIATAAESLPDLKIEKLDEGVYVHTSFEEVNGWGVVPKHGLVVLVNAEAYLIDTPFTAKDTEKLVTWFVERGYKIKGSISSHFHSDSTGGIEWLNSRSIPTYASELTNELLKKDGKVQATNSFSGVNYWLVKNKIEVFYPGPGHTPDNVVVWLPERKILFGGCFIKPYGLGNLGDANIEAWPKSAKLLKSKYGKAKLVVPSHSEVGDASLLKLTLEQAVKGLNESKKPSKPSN
Assay [10] addresses T1, Beta-lactamase. As to the kind of experiment: Epi-absorbance-based counterscreen for selective VIM-2 inhibitors: dose response biochemical high throughput screening assay to identify inhibitors of TEM-1 serine-beta-lactamase.
The target of assay [11] is T3, Beta-lactamase. Description: […] counterscreen for selective VIM-2 inhibitors: dose response biochemical high throughput screening assay to identify inhibitors of IMP-1 metallo-beta-lactamase.
In assay [12] the target is T4, Beta Lactamase (Pseudomonas aeruginosa, UniProt Q932Y6). As to the kind of experiment: VIM-2 inhibitor FRET-based artefact check, dose response, artefact control for selective VIM-2 inhibitor project, biochemical, FRET readout, CCF2 substrate (AID 1926).
T4 sequence (Q932Y6 whole entry): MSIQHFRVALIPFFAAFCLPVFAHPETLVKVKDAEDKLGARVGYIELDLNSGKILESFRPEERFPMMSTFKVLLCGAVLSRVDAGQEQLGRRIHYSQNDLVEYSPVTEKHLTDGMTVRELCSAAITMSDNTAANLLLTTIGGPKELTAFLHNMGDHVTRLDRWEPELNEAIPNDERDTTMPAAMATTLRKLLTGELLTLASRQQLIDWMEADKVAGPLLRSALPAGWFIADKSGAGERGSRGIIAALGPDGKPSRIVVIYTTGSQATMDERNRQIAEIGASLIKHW
For assay [13], the target named is T4, Beta Lactamase. Description: VIM-2 metallo-beta-lactamase inhibitor potency, dose response, biochemical, epi-absorbance readout, selective inhibitors (AID 1919).
In assay [14] the target is T3, Beta-lactamase. Description: IMP-1 metallo-beta-lactamase inhibitors, dose response, selectivity assay for VIM-2 inhibitor project, biochemical, epi-absorbance (AID 1920).
Assay [15] addresses T5, Scavenger receptor class B member 1 (Mus musculus, UniProt Q61009).
T5 sequence (Q61009 whole entry): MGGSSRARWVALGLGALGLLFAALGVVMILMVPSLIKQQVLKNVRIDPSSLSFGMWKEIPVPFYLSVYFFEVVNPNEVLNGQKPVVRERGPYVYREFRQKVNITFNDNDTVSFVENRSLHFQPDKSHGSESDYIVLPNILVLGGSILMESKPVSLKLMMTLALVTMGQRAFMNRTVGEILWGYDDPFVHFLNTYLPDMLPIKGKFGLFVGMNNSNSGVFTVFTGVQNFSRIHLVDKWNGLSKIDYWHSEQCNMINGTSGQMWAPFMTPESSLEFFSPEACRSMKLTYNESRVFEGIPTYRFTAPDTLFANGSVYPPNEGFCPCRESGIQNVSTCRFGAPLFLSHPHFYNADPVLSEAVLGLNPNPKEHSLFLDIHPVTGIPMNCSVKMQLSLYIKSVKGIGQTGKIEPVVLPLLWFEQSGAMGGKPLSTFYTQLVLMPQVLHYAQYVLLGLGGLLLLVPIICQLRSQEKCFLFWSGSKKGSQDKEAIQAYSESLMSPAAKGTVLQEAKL
As to the kind of experiment: inhibitors of SR-BI-mediated HDL uptake, dose response, cell-based, ldlA[mSR-BI] CHO, DiI fluorescence, dry powder, set 10 (AID 624029). In kind it is functional.

The target in assay [16] is T5, Scavenger receptor class B member 1. Description: inhibitors of SR-BI dependent HDL uptake, dose response, ldlA[mSR-BI] CHO cells, fluorescence plate reader, dry powder, set 9 (AID 623880). Type of assay: functional, cell-based.
Assay [17] deals with A549. Description: A549 cell toxicity, dose response, cytotoxicity control, plate reader, cherry-pick samples (AID 687028). Particulars: Homo sapiens. In kind it is functional, cell-based.
The nature of assay [18]: Counterscreen for activators of the function of SWI/SNF related, matrix associated, actin dependent regulator of chromatin, subfamily a, member 2 (SMARCA2, BRM): Luminescence-based cell-based high throughput dose response assay to identify non-selective compounds using the VP16 reporter assay. Type of assay: functional.
Assay [19] addresses SWI/SNF-related matrix-associated actin-dependent regulator of chromatin subfamily A member 2 (Homo sapiens, UniProt P51531). Description: Luminescence-based cell-based high throughput dose response assay to identify activators of the function of SWI/SNF related, matrix associated, actin dependent regulator of chromatin, subfamily a, member 2 (SMARCA2, BRM). Type of assay: functional.

For assay [20], the target named is Beta-2 adrenergic receptor (Homo sapiens, UniProt P07550). As to the kind of experiment: beta2AR agonists driving receptor internalization, dose response, cell-based, FAP fluorogen, flow cytometry, cherry pick 1 (AID 588763). In kind it is functional. (In flow cytometry, cells or beads pass a laser one at a time.)
Sequence of Beta-2 adrenergic receptor (P07550 whole entry): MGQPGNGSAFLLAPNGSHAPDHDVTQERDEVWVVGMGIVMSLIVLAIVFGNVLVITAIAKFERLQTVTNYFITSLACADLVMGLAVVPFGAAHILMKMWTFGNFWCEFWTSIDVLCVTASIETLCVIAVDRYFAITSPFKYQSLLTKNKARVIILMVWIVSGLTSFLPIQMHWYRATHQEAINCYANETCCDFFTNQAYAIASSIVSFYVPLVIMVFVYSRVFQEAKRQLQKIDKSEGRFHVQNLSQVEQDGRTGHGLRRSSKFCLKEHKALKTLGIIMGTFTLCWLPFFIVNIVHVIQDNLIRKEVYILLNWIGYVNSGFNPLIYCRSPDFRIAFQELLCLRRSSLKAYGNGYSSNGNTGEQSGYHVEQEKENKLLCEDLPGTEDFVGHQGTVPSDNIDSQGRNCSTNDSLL
The subject of assay [21] is HEK293. Description: cells. To be noted: Homo sapiens.
In assay [22] the test system is HEK293. As to the kind of experiment: cells. To be noted: Homo sapiens. The source holds these as a separate data set.

T1 sequence (Q5J463 whole entry): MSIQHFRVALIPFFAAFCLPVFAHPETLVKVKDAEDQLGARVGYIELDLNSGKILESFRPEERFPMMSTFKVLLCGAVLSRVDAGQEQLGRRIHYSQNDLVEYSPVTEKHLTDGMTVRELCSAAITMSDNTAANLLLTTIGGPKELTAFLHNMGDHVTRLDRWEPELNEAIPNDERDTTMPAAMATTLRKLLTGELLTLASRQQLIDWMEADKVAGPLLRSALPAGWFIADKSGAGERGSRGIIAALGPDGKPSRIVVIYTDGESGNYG
Sequence of SWI/SNF-related matrix-associated actin-dependent regulator of chromatin subfamily A member 2 (P51531 whole entry): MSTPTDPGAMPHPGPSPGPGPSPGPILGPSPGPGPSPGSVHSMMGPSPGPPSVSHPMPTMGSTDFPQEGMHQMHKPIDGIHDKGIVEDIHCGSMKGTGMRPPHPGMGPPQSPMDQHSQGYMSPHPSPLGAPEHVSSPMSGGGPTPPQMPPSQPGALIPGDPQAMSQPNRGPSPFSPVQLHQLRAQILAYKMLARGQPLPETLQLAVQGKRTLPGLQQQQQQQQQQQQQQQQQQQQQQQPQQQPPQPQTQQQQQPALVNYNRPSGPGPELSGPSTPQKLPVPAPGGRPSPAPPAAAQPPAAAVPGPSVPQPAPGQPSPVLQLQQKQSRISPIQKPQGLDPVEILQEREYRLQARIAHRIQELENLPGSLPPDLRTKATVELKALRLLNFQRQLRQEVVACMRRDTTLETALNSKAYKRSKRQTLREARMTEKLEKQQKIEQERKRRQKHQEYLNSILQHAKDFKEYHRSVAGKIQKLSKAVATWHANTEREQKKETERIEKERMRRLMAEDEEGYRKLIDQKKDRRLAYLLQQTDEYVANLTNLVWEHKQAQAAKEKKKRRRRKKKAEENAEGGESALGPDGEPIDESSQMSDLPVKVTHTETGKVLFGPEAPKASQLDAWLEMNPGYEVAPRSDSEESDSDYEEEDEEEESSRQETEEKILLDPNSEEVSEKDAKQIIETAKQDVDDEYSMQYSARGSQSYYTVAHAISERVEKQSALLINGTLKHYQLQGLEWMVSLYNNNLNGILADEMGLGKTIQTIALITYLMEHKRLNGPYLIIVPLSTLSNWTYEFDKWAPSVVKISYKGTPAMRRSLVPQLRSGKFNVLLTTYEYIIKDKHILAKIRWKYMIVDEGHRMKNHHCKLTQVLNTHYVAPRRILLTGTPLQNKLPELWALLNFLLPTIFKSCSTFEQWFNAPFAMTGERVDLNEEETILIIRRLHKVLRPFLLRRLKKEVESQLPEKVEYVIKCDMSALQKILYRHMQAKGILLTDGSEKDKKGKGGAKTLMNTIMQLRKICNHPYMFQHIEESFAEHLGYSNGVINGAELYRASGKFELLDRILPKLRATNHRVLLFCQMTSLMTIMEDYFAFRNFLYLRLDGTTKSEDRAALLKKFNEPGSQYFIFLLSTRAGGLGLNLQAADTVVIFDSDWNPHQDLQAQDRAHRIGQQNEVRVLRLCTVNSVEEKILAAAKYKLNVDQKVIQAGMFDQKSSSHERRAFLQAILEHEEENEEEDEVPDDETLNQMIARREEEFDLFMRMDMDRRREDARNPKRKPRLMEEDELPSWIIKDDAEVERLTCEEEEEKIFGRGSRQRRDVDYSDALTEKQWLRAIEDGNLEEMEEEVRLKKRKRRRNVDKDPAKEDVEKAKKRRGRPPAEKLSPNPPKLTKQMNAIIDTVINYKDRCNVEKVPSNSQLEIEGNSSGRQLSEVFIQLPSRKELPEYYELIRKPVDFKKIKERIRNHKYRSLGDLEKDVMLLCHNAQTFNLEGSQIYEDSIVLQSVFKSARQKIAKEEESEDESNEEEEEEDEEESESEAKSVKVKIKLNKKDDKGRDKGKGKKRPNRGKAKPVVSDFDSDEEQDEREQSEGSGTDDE
Sequence of Metabotropic glutamate receptor 5 (P31424 whole entry): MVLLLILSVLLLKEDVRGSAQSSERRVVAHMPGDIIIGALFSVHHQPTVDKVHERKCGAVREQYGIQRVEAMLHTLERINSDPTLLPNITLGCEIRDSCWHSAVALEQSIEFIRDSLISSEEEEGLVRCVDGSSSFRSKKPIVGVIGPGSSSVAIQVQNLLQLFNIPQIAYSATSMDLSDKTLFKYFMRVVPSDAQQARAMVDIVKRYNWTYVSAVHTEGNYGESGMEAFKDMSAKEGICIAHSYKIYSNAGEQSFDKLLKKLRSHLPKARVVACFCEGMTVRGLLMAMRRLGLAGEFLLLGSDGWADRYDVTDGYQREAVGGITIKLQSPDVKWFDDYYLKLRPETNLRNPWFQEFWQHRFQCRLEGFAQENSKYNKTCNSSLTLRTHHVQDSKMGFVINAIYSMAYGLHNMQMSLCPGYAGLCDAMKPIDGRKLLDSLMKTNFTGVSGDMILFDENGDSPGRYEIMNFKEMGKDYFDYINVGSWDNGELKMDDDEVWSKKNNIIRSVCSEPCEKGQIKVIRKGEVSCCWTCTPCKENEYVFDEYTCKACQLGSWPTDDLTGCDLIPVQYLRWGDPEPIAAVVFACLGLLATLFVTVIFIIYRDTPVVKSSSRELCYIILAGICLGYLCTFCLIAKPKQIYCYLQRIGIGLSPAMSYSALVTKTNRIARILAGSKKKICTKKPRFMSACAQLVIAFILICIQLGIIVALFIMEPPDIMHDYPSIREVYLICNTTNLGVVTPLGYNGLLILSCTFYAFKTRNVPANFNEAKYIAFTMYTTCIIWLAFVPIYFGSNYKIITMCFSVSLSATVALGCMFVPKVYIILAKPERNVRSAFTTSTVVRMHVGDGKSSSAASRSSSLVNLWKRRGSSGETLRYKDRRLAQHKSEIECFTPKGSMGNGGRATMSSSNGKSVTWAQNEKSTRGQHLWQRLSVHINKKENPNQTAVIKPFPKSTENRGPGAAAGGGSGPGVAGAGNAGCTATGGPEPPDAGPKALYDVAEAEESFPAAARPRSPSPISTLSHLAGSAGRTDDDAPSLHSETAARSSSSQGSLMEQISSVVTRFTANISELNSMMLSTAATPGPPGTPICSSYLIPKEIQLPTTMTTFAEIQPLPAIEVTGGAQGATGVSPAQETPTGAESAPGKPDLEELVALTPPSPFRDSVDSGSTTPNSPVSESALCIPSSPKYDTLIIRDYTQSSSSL

What is called IC50 is the concentration at which inhibition is half-maximal. With `COc1ccc(N2CCN(C(=O)c3cc(-c4ccc(F)cc4)[nH]c3C)CC2)cc1`, in [1], the IC50 was > 80 µM (inactive).

The term EC50 denotes the concentration needed to bring the measured effect to its halfway point. On to `CS(=O)(=O)N(Cc1nc2ccccc2[nH]1)c1ccccc1Cl`, for which the EC50 in assay [2] amounted to 2.46 µM.

Usually AC50 stands for the midpoint of the concentration-response curve, whichever way the signal moves. As to `CN1CCN(C2=C(Nc3ccc(Cl)cc3)C(=O)c3ccccc3C2=O)CC1`, the AC50 in assay [3] is 11.6 µM (active); in [4] it was 17.4 µM (active); in assay [5], 39.3 µM (active).

Take `CCOc1cc2c(cc1/C=C/c1noc(C)c1[N+](=O)[O-])OC(C)C2` (configuration not stated): the IC50 in [6] and in assay [9] was > 59.6 µM (inactive) throughout. The EC50 in [7] and in [8] was > 99 µM (inactive) each time.

`CC(=C/c1ccccc1)/C=N/n1c(C)nnc1S`: the IC50 was > 59.6 µM (inactive) in [10]; > 59.6 µM (inactive) in [11]; 2.5 µM (active) in assay [12]; 9.98 µM (active) in assay [13]; > 59.6 µM (inactive) in assay [14].

Take `COc1ccc2c(c1)CC(C1(O)C(=O)N(C)c3ccccc31)C2=O` (configuration not stated): the AC50 in assay [15] and in assay [16] was > 70 µM (inactive) in each case.

As for `Cc1ccccc1S(=O)(=O)N1CC[C@@H]2[C@H](CO)Nc3ccc(-c4cccc(C#N)c4)cc3[C@@H]21`, the AC50 in assay [17] was 28.8 µM (active).

Regarding `CC1(C)Cc2c(c(-c3ccco3)nc3sc4c(NCCCO)ncnc4c23)CO1`, the EC50 in assay [18] was > 91.2 µM (inactive); in assay [19] it was > 91.2 µM (inactive); in assay [20], 0.0207 µM (active); in assay [21], > 59.6 µM (inactive); in [22], > 59.6 µM (inactive).
